Source: article PMC10722513

Assay: Au(I)-catalysed intramolecular Trp C2-H alkynylation: peptide-EBX (4-ethynylbenzoyl bis-CF3-benziodoxole on Lys side chain or N-terminus) + AuCl·Me2S, open flask
Conditions: HFIP, 5.0 mM, 25.0 °C, 0.17 h

CC[C@H](C)[C@@H]1NC(=O)[C@@H]2CCCN2C(=O)[C@H]([C@@H](C)CC)NC(=O)[C@@H]2CCCN2C(=O)[C@H](Cc2ccccc2)NC(=O)[C@H](C)NC(=O)c2ccc(cc2)C#Cc2[nH]c3ccccc3c2C[C@@H](C(N)=O)NC1=O [EBX-A-F-P-I-P-I-W-NH2]
ring closure, isolated yield (from CC[C@H](C)[C@H](NC(=O)[C@@H]1CCCN1C(=O)[C@@H](NC(=O)[C@@H]1CCCN1C(=O)[C@H](Cc1ccccc1)NC(=O)[C@H](C)NC(=O)c1ccc(C#CI2OC(C(F)(F)F)(C(F)(F)F)c3ccccc32)cc1)[C@@H](C)CC)C(=O)N[C@@H](Cc1c[nH]c2ccccc12)C(N)=O, 30-membered ring): 53%

C[C@@H]1NC(=O)[C@H](CC(=O)O)NC(=O)c2ccc(cc2)C#Cc2c(c3ccccc3n2C)C[C@@H](C(N)=O)NC(=O)[C@H](CCC(=O)O)NC(=O)CNC(=O)[C@H]([C@@H](C)O)NC(=O)[C@H](CCC(=O)O)NC1=O [EBX-D-A-E-T-G-E-W(1-Me)-NH2]
ring closure, isolated yield (from C[C@H](NC(=O)[C@H](CC(=O)O)NC(=O)c1ccc(C#CI2OC(C(F)(F)F)(C(F)(F)F)c3ccccc32)cc1)C(=O)N[C@@H](CCC(=O)O)C(=O)N[C@H](C(=O)NCC(=O)N[C@@H](CCC(=O)O)C(=O)N[C@@H](Cc1cn(C)c2ccccc12)C(N)=O)[C@@H](C)O, 30-membered ring): 86%

C[C@@H]1NC(=O)[C@H](CC(=O)O)NC(=O)c2ccc(cc2)C#Cc2[nH]c3ccccc3c2C[C@@H](C(N)=O)NC(=O)[C@H](CCC(=O)O)NC(=O)CNC(=O)[C@H]([C@@H](C)O)NC(=O)[C@H](CCC(=O)O)NC1=O [EBX-D-A-E-T-G-E-W-NH2]
ring closure, isolated yield (from C[C@H](NC(=O)[C@H](CC(=O)O)NC(=O)c1ccc(C#CI2OC(C(F)(F)F)(C(F)(F)F)c3ccccc32)cc1)C(=O)N[C@@H](CCC(=O)O)C(=O)N[C@H](C(=O)NCC(=O)N[C@@H](CCC(=O)O)C(=O)N[C@@H](Cc1c[nH]c2ccccc12)C(N)=O)[C@@H](C)O, 30-membered ring): 49%

N=C(N)NCCC[C@@H]1NC(=O)[C@H](CCCNC(=N)N)NC(=O)[C@H](CCCNC(=N)N)NC(=O)[C@H](CCCNC(=N)N)NC(=O)[C@H](Cc2ccc3ccccc3c2)NC(=O)[C@H](Cc2ccccc2)NC(=O)c2ccc(cc2)C#Cc2[nH]c3ccccc3c2C[C@@H](C(N)=O)NC1=O [EBX-F-Nal(2)-R-R-R-R-W-NH2]
ring closure, isolated yield (from N=C(N)NCCC[C@H](NC(=O)[C@H](CCCNC(=N)N)NC(=O)[C@H](CCCNC(=N)N)NC(=O)[C@H](CCCNC(=N)N)NC(=O)[C@H](Cc1ccc2ccccc2c1)NC(=O)[C@H](Cc1ccccc1)NC(=O)c1ccc(C#CI2OC(C(F)(F)F)(C(F)(F)F)c3ccccc32)cc1)C(=O)N[C@@H](Cc1c[nH]c2ccccc12)C(N)=O, 30-membered ring): 57%

C[C@@H]1NC(=O)[C@H](CC(=O)O)NC(=O)CNC(=O)c2ccc(cc2)C#Cc2c(c3ccccc3n2C)C[C@@H](C(N)=O)NC(=O)[C@H](CCC(=O)O)NC(=O)CNC(=O)[C@H]([C@@H](C)O)NC(=O)[C@H](CCC(=O)O)NC1=O [EBX-G-D-A-E-T-G-E-W(1-Me)-NH2]
ring closure, isolated yield (from C[C@H](NC(=O)[C@H](CC(=O)O)NC(=O)CNC(=O)c1ccc(C#CI2OC(C(F)(F)F)(C(F)(F)F)c3ccccc32)cc1)C(=O)N[C@@H](CCC(=O)O)C(=O)N[C@H](C(=O)NCC(=O)N[C@@H](CCC(=O)O)C(=O)N[C@@H](Cc1cn(C)c2ccccc12)C(N)=O)[C@@H](C)O, 33-membered ring): 61%

C[C@@H]1NC(=O)[C@H](CC(=O)O)NC(=O)CNC(=O)c2ccc(cc2)C#Cc2[nH]c3ccccc3c2C[C@@H](C(N)=O)NC(=O)[C@H](CCC(=O)O)NC(=O)CNC(=O)[C@H]([C@@H](C)O)NC(=O)[C@H](CCC(=O)O)NC1=O [EBX-G-D-A-E-T-G-E-W-NH2]
ring closure, isolated yield (from C[C@H](NC(=O)[C@H](CC(=O)O)NC(=O)CNC(=O)c1ccc(C#CI2OC(C(F)(F)F)(C(F)(F)F)c3ccccc32)cc1)C(=O)N[C@@H](CCC(=O)O)C(=O)N[C@H](C(=O)NCC(=O)N[C@@H](CCC(=O)O)C(=O)N[C@@H](Cc1c[nH]c2ccccc12)C(N)=O)[C@@H](C)O, 33-membered ring): 47%

CC(C)C[C@@H]1NC(=O)[C@H](CC(=O)O)NC(=O)[C@H](CC(=O)O)NC(=O)[C@H](Cc2ccccc2)NC(=O)[C@H](Cc2ccccc2)NC(=O)CNC(=O)c2ccc(cc2)C#Cc2[nH]c3ccccc3c2C[C@@H](C(=O)N[C@@H](Cc2ccccc2)C(=O)N[C@H](C(=O)N[C@@H](C)C(N)=O)C(C)C)NC(=O)[C@H](Cc2ccc(O)cc2)NC1=O [EBX-G-F-F-D-D-L-Y-W-F-V-A-NH2]
ring closure, isolated yield (from CC(C)C[C@H](NC(=O)[C@H](CC(=O)O)NC(=O)[C@H](CC(=O)O)NC(=O)[C@H](Cc1ccccc1)NC(=O)[C@H](Cc1ccccc1)NC(=O)CNC(=O)c1ccc(C#CI2OC(C(F)(F)F)(C(F)(F)F)c3ccccc32)cc1)C(=O)N[C@@H](Cc1ccc(O)cc1)C(=O)N[C@@H](Cc1c[nH]c2ccccc12)C(=O)N[C@@H](Cc1ccccc1)C(=O)N[C@H](C(=O)N[C@@H](C)C(N)=O)C(C)C, 33-membered ring): 56%

N=C(N)NCCC[C@@H]1NC(=O)CNC(=O)c2ccc(cc2)C#Cc2[nH]c3ccccc3c2C[C@@H](C(N)=O)NC(=O)[C@H](Cc2ccccc2)NC(=O)[C@H](CC(=O)O)NC(=O)CNC1=O [EBX-G-R-G-D-F-W-NH2]
ring closure, isolated yield (from N=C(N)NCCC[C@H](NC(=O)CNC(=O)c1ccc(C#CI2OC(C(F)(F)F)(C(F)(F)F)c3ccccc32)cc1)C(=O)NCC(=O)N[C@@H](CC(=O)O)C(=O)N[C@@H](Cc1ccccc1)C(=O)N[C@@H](Cc1c[nH]c2ccccc12)C(N)=O, 27-membered ring): 63%

N=C(N)NCCC[C@@H]1NC(=O)[C@H](CCCNC(=N)N)NC(=O)[C@H](CCCNC(=N)N)NC(=O)[C@H](CCCNC(=N)N)NC(=O)[C@H](Cc2ccc3ccccc3c2)NC(=O)c2ccc(cc2)C#Cc2[nH]c3ccccc3c2C[C@@H](C(N)=O)NC1=O [EBX-Nal(2)-R-R-R-R-W-NH2]
ring closure, isolated yield (from N=C(N)NCCC[C@H](NC(=O)[C@H](CCCNC(=N)N)NC(=O)[C@H](CCCNC(=N)N)NC(=O)[C@H](CCCNC(=N)N)NC(=O)[C@H](Cc1ccc2ccccc2c1)NC(=O)c1ccc(C#CI2OC(C(F)(F)F)(C(F)(F)F)c3ccccc32)cc1)C(=O)N[C@@H](Cc1c[nH]c2ccccc12)C(N)=O, 27-membered ring): 53%
